Columns and labels:
[1] = system: hypovolemic shock (severe hypotension induced by bleeding) in rats; assay: Hypovolemic shock by bleeding in anesthetized rats: mean arterial pressure and survival after i.v. bolus; assay type: in vivo, female Wistar rats; details: for Mean arterial pressure, 15-30 min. after treatment / Mean arterial pressure, after bleeding / Mean arterial pressure, before bleeding: mean ± S.E.; for Mean arterial pressure, after bleeding: before treatment; for Mean arterial pressure, before bleeding: baseline before bleeding
Description: Intact and adrenalectomized female Wistar rats (Nossan, Correzzano, Milano, Italy) weighing 250 to 300 g, were used. Following anesthetization and heparinization a common carotid artery and an iliac vein were cannulated in rats. Arterial blood pressure was recorded by means of a pressure transducer (Statham P23 Db) connected to a polygraph (Battaglia-Rangoni, Bologna, Italy). […] Hypovolemic shock was produced by intermittently withdrawing blood from the venous catheter until mean arterial pressure fell to 16-30 mm Hg. […] Following bleeding and mean blood pressure stabilization in the range of 16-30 mm Hg, animals were given intravenous bolus of either ACTH fragments. Control animals were intravenously injected with the same volume of saline (0.1 ml/100 g of body weight).

shock = details: in vivo; cited from earlier work
[2] = Toxicity and side-effects of ACTH fragments (general statement)
[3] = group later given 160 μg/kg i.v.
[4] = group later given 40 μg/kg i.v.
[5] = group later given 80 μg/kg i.v.

| Molecule | No. of deaths 120 min. after treatment ([1]; 160 μg/kg i.v. after bleeding) | Mean arterial pressure, 15-30 min. after treatment ([1]; 160 μg/kg i.v. after bleeding) [mm Hg] | Mean arterial pressure, after bleeding [1, 3] [mm Hg] | Mean arterial pressure, before bleeding [1, 3] [mm Hg] | other results |
| --- | --- | --- | --- | --- | --- |
| ACTH (1-13) (SYSMEHFRWGKPV; Corticotropin; UniProt P01189 138-150, looked up, fragment) [ACTH-(1-13)] | 0 | 34.50 ± 1.32 | 15.75 ± 1.31 | 66.25 ± 9.14 |  |
| ACTH (1-16) (SYSMEHFRWGKPVGKK; Corticotropin; UniProt P01189 138-153, looked up, fragment) [ACTH-(1-16)] | 0 | 54.50 ± 2.02 | 15.50 ± 2.53 | 78.25 ± 12.46 |  |
| ACTH (1-39) (SYSMEHFRWGKPVGKKRRPVKVYPNGAEDESAEAFPLEF; Corticotropin; UniProt P01189 138-176, looked up) [ACTH-(1-39), full-length ACTH (1-39)] | 0 | 35.75 ± 5.65 | 14.75 ± 2.32 | 88.25 ± 2.17 |  |
| ACTH (1-18) (SYSMEHFRWGKPVGKKRR; Corticotropin; UniProt P01189 138-155, looked up, fragment) [ACTH-(1-18)] | 0 | 38.50 ± 1.85 | 15.00 ± 2.12 | 53.00 ± 4.88 |  |
| ACTH (1-17) [ACTH-(1-17)] | 0 | 41.50 ± 3.75 | 15.75 ± 2.29 | 57.50 ± 7.17 |  |
| ACTH (4-10) (MEHFRWG; Corticotropin; UniProt P01189 141-147, looked up, fragment) [ACTH-(4-10)] | 0 | 47.25 ± 6.18 | 13.75 ± 2.53 | 63.25 ±6.76 |  |
| C=CCN1CC[C@]23c4c5ccc(O)c4O[C@H]2C(=O)CC[C@@]3(O)[C@H]1C5 [naloxone] |  |  |  |  | Dosage therapeutically active in shock (shock): about 1 mg/kg |
| ACTH(25-39) (NGAEDESAEAFPLEF; Corticotropin; UniProt P01189 162-176, looked up, fragment) | 1 | 25.50 ± 4.40 | 11.50 ± 1.34 | 78.17 ± 7.25 |  |
| ACTH (1-24) [ACTH-(1-24)] | 0 | 75.80 ± 8.45 | 23.15 ± 2.90 | 82.40 ± 10.75 | Toxicity / side-effects [2]: substantially non-toxic; No. of deaths 120 min. after treatment ([1]; 40 μg/kg i.v. after bleeding): 0; Mean arterial pressure, 15-30 min. after treatment ([1]; 40 μg/kg i.v. after bleeding): 39.40 ± 6.32 mm Hg; No. of deaths 120 min. after treatment ([1]; 80 μg/kg i.v. after bleeding): 0; Mean arterial pressure, 15-30 min. after treatment ([1]; 80 μg/kg i.v. after bleeding): 59.48 ± 8.10 mm Hg; Mean arterial pressure, after bleeding [1, 4]: 17.40 ± 2.68 mm Hg; Mean arterial pressure, before bleeding [1, 4]: 82.33 ± 11.73 mm Hg; Mean arterial pressure, after bleeding [1, 5]: 19.23 ± 3.65 mm Hg; Mean arterial pressure, before bleeding [1, 5]: 80.15 ± 9.43 mm Hg |
